Measured values from patent US4175081A, “5-Substituted thiadiazole ureas” (priority 1977, dated 1979).

How the values were obtained:
Crabgrass (CG) [1] = experiment: Pre-emergence herbicide test; format: in vivo, Digitaria sanquinalis; settings: Digitaria sanguinalis, pre-emergence, 336 h, two weeks after treatment
Method in brief: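 Crabgrass (Digitaria sanquinalis) was surface seeded in 3' plastic pots of potting soil, covered with screened soil, and watered by sub-irrigation in greenhouse trays. Pots were seeded one day before spraying in a hood with a moving belt and fixed nozzle. Plants stayed in the greenhouse on sub-irrigation, and pre-emergence control was rated visually two weeks after treatment.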

[2] = tested on: Yellow foxtail grass (YF); experiment: Pre-emergence herbicide test; format: in vivo, Setaria glauca; settings: Setaria, 336 h, two weeks after treatment
Method in brief: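 Visual rating of injury/control made two weeks after a pre-emergence spray of 8 or 4 lbs active per acre (38 gal/acre) onto pots seeded the previous day. Greenhouse watering by sub-irrigation only.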

Johnson grass (JG) [3] = experiment: Pre-emergence herbicide test; format: in vivo, Sorgum helepense; settings: Sorghum halepense, 336 h, two weeks after treatment
Method in brief: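 Visual injury or control rating two weeks post-treatment, after pre-emergence spray of 8 or 4 lbs active per acre (38 gal/acre) onto pots sown the previous day. Greenhouse watering by sub-irrigation only.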

Barnyard grass (BG) [4] = experiment: Pre-emergence herbicide test; format: in vivo; settings: Echinochloa crus-galli, 336 h, two weeks after treatment
Method in brief: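 Greenhouse pre-emergence spray test: pots seeded one day before treatment received compound at rates of 8 or 4 lb/acre (38 gal/acre). Visual injury/control scores for Echinochloa crus-galli taken at two weeks, with watering by sub-irrigation only.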

Amaranth pigweed (PW) [5] = experiment: Pre-emergence herbicide test; format: in vivo, Amaranthus retroflexus; settings: 336 h, two weeks after treatment
Method in brief: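 Visual injury or control ratings were made at two weeks on pre-emergence pots, sub-irrigated in the greenhouse. Seeds were sown a day before a hood spray delivering 8 lbs/acre (or 4 lbs/acre) of compound in 38 gallons per acre.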

Turnip (TP) [6] = experiment: Pre-emergence herbicide test; format: in vivo, Brassica sp.; settings: Brassica rapa, pre-emergence, 336 h, two weeks after treatment
Method in brief: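 In this pre-emergence greenhouse test, turnip was seeded on the surface of potting soil in 3' plastic pots, lightly covered with screened soil, and watered from below. One day later the pots were sprayed in a belt-fed spray hood. Watering continued only by sub-irrigation, and percent control was visually scored two weeks after treatment.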

Cotton (CT) [7] = experiment: Pre-emergence herbicide test; format: in vivo, Gossypium hirsutum var. DPL smooth leaf; settings: Gossypium hirsutum, 336 h, two weeks after treatment
Method in brief: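 Visual injury/control ratings were taken at two weeks post-spray. Pots seeded a day earlier received compound pre-emergence at 8 lbs/acre, or 4 lbs/acre, in a 38 gallon/acre spray volume, and were then held in the greenhouse, watered only from below.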

Corn (CN) [8] = experiment: Pre-emergence herbicide test; format: in vivo; settings: Zea mays, 336 h, two weeks after treatment
Method in brief: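 Visual injury/control ratings were made 2 weeks post-spray on corn pots seeded (4 seeds, seed-diameter depth) the day before treatment. Application was a belt-hood spray of 38 gal/acre delivering 8 lbs active per acre, with a 4 lbs/acre rate also formulated. Watering was by sub-irrigation throughout.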

Bean (BN) [9] = experiment: Pre-emergence herbicide test; format: in vivo, Phaseolus vulgaris var. Black Valentine; settings: Phaseolus vulgaris, 336 h, two weeks after treatment
Method in brief: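 Visual injury/control ratings were taken two weeks post-spray on sub-irrigated Phaseolus vulgaris var. Black Valentine. Pots were sown a day before treatment. Pre-emergence spray delivered 8 lbs actual compound per acre (or 4 lbs/acre) at 38 gallons per acre.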

Crabgrass (CG) [10] = experiment: Post-emergence herbicide test; format: in vivo, Digitaria sanquinalis; settings: Digitaria sanguinalis, post-emergence, 336 h, two weeks after treatment
Method in brief: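 Crabgrass (Digitaria sanquinalis) was surface seeded individually in 3' plastic pots of potting soil, covered with screened soil, and watered by sub-irrigation in greenhouse trays. Planting was staggered so seedlings reached the target stage together. Post-emergence sprays were applied in a hood with a removable belt and fixed nozzle, and control was visually rated two weeks after treatment.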

[11] = tested on: Yellow foxtail grass (YF); experiment: Post-emergence herbicide test; format: in vivo, Setaria glauca; settings: Setaria, 336 h, two weeks after treatment
Method in brief: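 Visual rating of injury/control made 2 weeks post-spray. Seedlings at a uniform growth stage in soil-filled pots received a hood spray of 8 lbs/acre active compound, 38 gallons/acre volume, with a 4 lbs/acre rate also formulated. Watering was by sub-irrigation only.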

Johnson grass (JG) [12] = experiment: Post-emergence herbicide test; format: in vivo, Sorgum helepense; settings: Sorghum halepense, 336 h, two weeks after treatment
Method in brief: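 Visual injury or control scores taken 2 weeks after a post-emergence spray of pot-grown plants. Application was 8 lbs/acre (or 4 lbs/acre) in 38 gal/acre. Plants were held in the greenhouse with sub-irrigation only.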

Barnyard grass (BG) [13] = experiment: Post-emergence herbicide test; format: in vivo; settings: Echinochloa crus-galli, 336 h, two weeks after treatment
Method in brief: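 Greenhouse pot-grown barnyard grass seedlings sprayed post-emergence at 8 lbs active compound per acre (some at 4 lbs/acre) in 38 gallons per acre, then sub-irrigated. Injury or control rated visually two weeks after treatment.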

Amaranth pigweed (PW) [14] = experiment: Post-emergence herbicide test; format: in vivo, Amaranthus retroflexus; settings: 336 h, two weeks after treatment
Method in brief: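 Visual injury or control ratings were made two weeks after spraying, with greenhouse watering by sub-irrigation only. Treatment was post-emergence, when pigweed seedlings had 1 or 2 true leaves, at 8 lbs active compound per acre (4 lbs/acre formulations also made) in a 38 gallons-per-acre spray volume.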

Turnip (TP) [15] = experiment: Post-emergence herbicide test; format: in vivo, Brassica sp.; settings: Brassica rapa, post-emergence, 336 h, two weeks after treatment
Method in brief: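 A greenhouse post-emergence herbicide test on turnip. Seeds were sown on the surface of potting soil in 3' plastic pots, lightly covered with screened soil and watered from below. Planting was timed so seedlings had 1 or 2 true leaves above the cotyledons at spraying, done in a hood with a fixed nozzle. Control or injury was scored by eye after two weeks.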

Cotton (CT) [16] = experiment: Post-emergence herbicide test; format: in vivo, Gossypium hirsutum var. DPL smooth leaf; settings: Gossypium hirsutum, post-emergence, 336 h, two weeks after treatment
Method in brief: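 This greenhouse post-emergence test measured how well spray treatments controlled cotton. Seedlings of Gossypium hirsutum var. DPL smooth leaf, with expanded cotyledons and a first true leaf 1' in length, were sprayed with 50 ml formulations in a belt-fed spray hood. They were then returned to the greenhouse and watered only by sub-irrigation. Injury was scored visually as % control after two weeks.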

Corn (CN) [17] = experiment: Post-emergence herbicide test; format: in vivo; settings: Zea mays, 336 h, two weeks after treatment
Method in brief: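 Greenhouse seedlings grown in potting soil and sprayed post-emergence at 8 lbs compound/acre (formulations also made for 4 lbs/acre) in 38 gallons/acre spray volume. Watering by sub-irrigation only. Injury or control rated visually two weeks after treatment.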

Bean (BN) [18] = experiment: Post-emergence herbicide test; format: in vivo, Phaseolus vulgaris var. Black Valentine; settings: Phaseolus vulgaris, post-emergence, 336 h, two weeks after treatment
Method in brief: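 Bean seedlings (Phaseolus vulgaris var. Black Valentine) were grown in potting soil in 3' pots until the primary leaves expanded. They were then sprayed under a hood with a removable belt and fixed nozzle, using 50 ml formulations. Afterward they were returned to the greenhouse and watered only by sub-irrigation. Percent control was judged visually two weeks after treatment.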

[19] = tested on: variety of crops and weed species; experiment: Pre- and post-emergence herbicide tests, overall assessment of Tables III-VI; format: in vivo; settings: data of Tables III-VI
Method in brief: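 Crops and weeds grown in potting soil were sprayed at 8 lbs. compound per acre in 38 gallons per acre, pre-emergence pots seeded one day before treatment. Injury or control was visually rated two weeks after treatment.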

Compound: CNC(=O)N(C)c1nnc(C(F)(F)F)s1 [Example 36]
- pest or weed control (Crabgrass (CG) [1]; 2 lb/acre): 100%
- pest or weed control at 4483.4 g/ha (Crabgrass (CG) [1]; 4 lb/acre): 90%
- pest or weed control at 8966.8 g/ha (Crabgrass (CG) [1]; 8 lb/acre): 90%
- pest or weed control at 2241.7 g/ha ([2]; 2 lb/acre): 100%
- pest or weed control at 4483.4 g/ha ([2]; 4 lb/acre): 90%
- pest or weed control at 8966.8 g/ha ([2]; 8 lb/acre): 90%
- pest or weed control at 2241.7 g/ha (Johnson grass (JG) [3]; 2 lb/acre): 70%
- pest or weed control at 4483.4 g/ha (Johnson grass (JG) [3]; 4 lb/acre): 40%
- pest or weed control at 8966.8 g/ha (Johnson grass (JG) [3]; 8 lb/acre): 90%
- pest or weed control at 2241.7 g/ha (Barnyard grass (BG) [4]; 2 lb/acre): 80%
- pest or weed control at 4483.4 g/ha (Barnyard grass (BG) [4]; 4 lb/acre): 100%
- pest or weed control at 8966.8 g/ha (Barnyard grass (BG) [4]; 8 lb/acre): 90%
- pest or weed control at 2241.7 g/ha (Amaranth pigweed (PW) [5]; 2 lb/acre): 90%
- pest or weed control at 4483.4 g/ha (Amaranth pigweed (PW) [5]; 4 lb/acre): 100%
- pest or weed control at 8966.8 g/ha (Amaranth pigweed (PW) [5]; 8 lb/acre): 90%
- pest or weed control at 2241.7 g/ha (Turnip (TP) [6]; 2 lb/acre): 100%
- pest or weed control at 4483.4 g/ha (Turnip (TP) [6]; 4 lb/acre): 100%
- pest or weed control at 8966.8 g/ha (Turnip (TP) [6]; 8 lb/acre): 100%
- pest or weed control at 2241.7 g/ha (Cotton (CT) [7]; 2 lb/acre): 80%
- pest or weed control at 4483.4 g/ha (Cotton (CT) [7]; 4 lb/acre): 90%
- pest or weed control at 8966.8 g/ha (Cotton (CT) [7]; 8 lb/acre): 90%
- pest or weed control at 2241.7 g/ha (Corn (CN) [8]; 2 lb/acre): 30%
- pest or weed control at 4483.4 g/ha (Corn (CN) [8]; 4 lb/acre): 40%
- pest or weed control at 8966.8 g/ha (Corn (CN) [8]; 8 lb/acre): 30%
- pest or weed control at 2241.7 g/ha (Bean (BN) [9]; 2 lb/acre): 90%
- pest or weed control at 4483.4 g/ha (Bean (BN) [9]; 4 lb/acre): 80%
- pest or weed control at 8966.8 g/ha (Bean (BN) [9]; 8 lb/acre): 100%
- pest or weed control (Crabgrass (CG) [10]; 2 lb/acre): 70%
- pest or weed control at 4483.4 g/ha (Crabgrass (CG) [10]; 4 lb/acre): 90%
- pest or weed control at 8966.8 g/ha (Crabgrass (CG) [10]; 8 lb/acre): 100%
- pest or weed control ([11]; 2 lb/acre): 100%
- pest or weed control at 4483.4 g/ha ([11]; 4 lb/acre): 100%
- pest or weed control at 8966.8 g/ha ([11]; 8 lb/acre): 100%
- pest or weed control (Johnson grass (JG) [12]; 2 lb/acre): 80%
- pest or weed control at 4483.4 g/ha (Johnson grass (JG) [12]; 4 lb/acre): 80%
- pest or weed control at 8966.8 g/ha (Johnson grass (JG) [12]; 8 lb/acre): 100%
- pest or weed control at 2241.7 g/ha (Barnyard grass (BG) [13]; 2 lb/acre): 100%
- pest or weed control at 4483.4 g/ha (Barnyard grass (BG) [13]; 4 lb/acre): 100%
- pest or weed control at 8966.8 g/ha (Barnyard grass (BG) [13]; 8 lb/acre): 100%
- pest or weed control at 2241.7 g/ha (Amaranth pigweed (PW) [14]; 2 lb/acre): 100%
- pest or weed control at 4483.4 g/ha (Amaranth pigweed (PW) [14]; 4 lb/acre): 100%
- pest or weed control at 8966.8 g/ha (Amaranth pigweed (PW) [14]; 8 lb/acre): 100%
- pest or weed control at 2241.7 g/ha (Turnip (TP) [15]; 2 lb/acre): 100%
- pest or weed control at 4483.4 g/ha (Turnip (TP) [15]; 4 lb/acre): 100%
- pest or weed control at 8966.8 g/ha (Turnip (TP) [15]; 8 lb/acre): 100%
- pest or weed control at 2241.7 g/ha (Cotton (CT) [16]; 2 lb/acre): 100%
- pest or weed control at 4483.4 g/ha (Cotton (CT) [16]; 4 lb/acre): 100%
- pest or weed control at 8966.8 g/ha (Cotton (CT) [16]; 8 lb/acre): 100%
- pest or weed control (Corn (CN) [17]; 2 lb/acre): 70%
- pest or weed control at 4483.4 g/ha (Corn (CN) [17]; 4 lb/acre): 100%
- pest or weed control at 8966.8 g/ha (Corn (CN) [17]; 8 lb/acre): 100%
- pest or weed control at 2241.7 g/ha (Bean (BN) [18]; 2 lb/acre): 100%
- pest or weed control at 4483.4 g/ha (Bean (BN) [18]; 4 lb/acre): 100%
- pest or weed control at 8966.8 g/ha (Bean (BN) [18]; 8 lb/acre): 100%
- herbicidal effectiveness / selectivity, in words [19]: extremely effective when applied to a variety of crops and weed species
